Data set [1] has as its target T1, hOAT1 (Homo sapiens, UniProt Q4U2R8).
T1 sequence (Q4U2R8 1-563): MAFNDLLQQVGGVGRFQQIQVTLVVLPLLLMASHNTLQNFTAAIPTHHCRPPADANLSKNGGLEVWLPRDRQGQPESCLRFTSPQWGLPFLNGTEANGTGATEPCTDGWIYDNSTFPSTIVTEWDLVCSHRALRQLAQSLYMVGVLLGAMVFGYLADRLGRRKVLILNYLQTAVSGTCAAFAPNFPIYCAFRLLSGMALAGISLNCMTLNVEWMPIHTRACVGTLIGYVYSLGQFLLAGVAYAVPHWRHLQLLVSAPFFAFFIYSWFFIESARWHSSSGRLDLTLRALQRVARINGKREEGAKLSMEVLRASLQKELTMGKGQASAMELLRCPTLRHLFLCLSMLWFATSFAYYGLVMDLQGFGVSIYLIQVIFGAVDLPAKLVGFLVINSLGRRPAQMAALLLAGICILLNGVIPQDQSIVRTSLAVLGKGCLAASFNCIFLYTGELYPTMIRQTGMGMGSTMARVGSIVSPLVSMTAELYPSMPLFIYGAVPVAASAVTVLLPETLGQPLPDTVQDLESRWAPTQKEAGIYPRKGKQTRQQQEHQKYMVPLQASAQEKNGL
Description: Substrates uptake assay, MDCKII-OAT1 cells (14C-PAH). Type of data set: in vitro ADME. An excerpt: Drug transporters mediate the cellular uptake and efflux of their substrates. Therefore, cell lines overexpressing a drug transporter can be utilized to investigate inhibitors of the transporter by assessing changes in substrate uptake. For each drug transporter, we selected a well-characterized inhibitor as the positive control. Radiolabeled substrates were used to indicate the decrease in transport efficiency when the drug transporters were inhibited by PDQ or the control inhibitors.
The concentrations of the control drugs and the substrates were stated in the assay details. Working solutions of the control inhibitors, the radiolabeled substrates, and each dose of PDQ were prepared at 200 times (200×) more concentrated solutions with DMSO for further dilution.
Transporter-overexpressed cell lines. Human organic anion transporter-overexpressed cell lines MDCKII-OAT1 and S2-OAT3, human organic anion transport polypeptide-overexpressed cell lines HEK293A-OATP1B1 and HEK293A-OATP1B3, human organic cation transporter 2-overexpressed cell line S2-OCT2, and human multi-drug resistance protein MDR1 (or P-gp)-overexpressed cell line MDCKII-MDR1 were gifts from Japan Fuji Biomedical Co., Ltd. (Fuji, Shizuoka Prefecture, Japan). Breast cancer resistance protein-overexpressed vesicles (sf9-BCRP vesicle) were purchased from GenoMembrane Co., Ltd. (Yokohama, Kanagawa, Japan).
Substrates uptake assay. In this assay, we studied the inhibition of PDQ against transporters OAT1, OAT3, OCT2, OATP1B1 and OATP1B3 with MDCKII-OAT1, S2-OAT3, S2-OCT2, HEK293A-OATP1B1and HEK293A-OATP1B3 cells, respectively. The radiolabeled substrates for OAT1, OAT3, OATP1B1, OATP1B3 and OCT2 were […], respectively (Table 5). Probenecid ([…]) was the positive control inhibitor of OAT1 and OAT3, while rifampicin ([…]) served as the control drug of OATP1B1 and OATP1B3. For OCT2, we used […] cimetidine to compare with the inhibitory effect of PDQ. Two times (2×) more concentrated working solutions of the drugs and the substrate were prepared with Dulbecco’s phosphate-buffered saline (DPBS, Gibco, Grand Island, NY, USA.). Then, an equal volume of 2× drug solution and 2× radiolabeled substrate solution were mixed as the working mix. All reagents were pre-warmed to 37 °C.
The cells were digested with 0.05% trypsin/EDTA. The density of the single-cell suspension was adjusted to 2.0 × 10^5 cells/mL for S2 cells and to 1.5 × 10^5 cells/mL for MDCK II and HEK293A cells. The cell suspension was then added to the reservoirs of the 24-well plate for culture until full confluency. The medium in the wells was removed, and the wells were washed with DPBS. Then, the plate was incubated for 10 min with pre-warmed DPBS in the wells. After removing DPBS, […] of working mix was added to each well to initiate the substrate uptake process. The reaction time was 5 min for S2-OCT2 cells, while the other four types of cells were incubated with the reaction mix for 2 min. Cold DPBS was used to terminate the substrate transportation. To each well, […] NaOH ([…]) was added to lyse the cells. Then, […] cell lysate was transferred to the counting vials, and 3 mL scintillation cocktail (Aquasol-2, PerkinElmer, Waltham, MA, USA) was added. […] Each sample was replicated three times (N = 3).
In = [100 × (U − U0)/(Uc − U0)]%(3)
The results were expressed as mean ± standard deviation (SD) and analyzed with GraphPad Prism 8.0 software (CA, USA). The IC50 of PDQ was curve-fitted with the FORECAST function.

The target in data set [2] is T2, hOCT2 (Homo sapiens, UniProt O15244).
T2 construct: host or cells: S2-OCT2
T2 sequence (O15244 1-555): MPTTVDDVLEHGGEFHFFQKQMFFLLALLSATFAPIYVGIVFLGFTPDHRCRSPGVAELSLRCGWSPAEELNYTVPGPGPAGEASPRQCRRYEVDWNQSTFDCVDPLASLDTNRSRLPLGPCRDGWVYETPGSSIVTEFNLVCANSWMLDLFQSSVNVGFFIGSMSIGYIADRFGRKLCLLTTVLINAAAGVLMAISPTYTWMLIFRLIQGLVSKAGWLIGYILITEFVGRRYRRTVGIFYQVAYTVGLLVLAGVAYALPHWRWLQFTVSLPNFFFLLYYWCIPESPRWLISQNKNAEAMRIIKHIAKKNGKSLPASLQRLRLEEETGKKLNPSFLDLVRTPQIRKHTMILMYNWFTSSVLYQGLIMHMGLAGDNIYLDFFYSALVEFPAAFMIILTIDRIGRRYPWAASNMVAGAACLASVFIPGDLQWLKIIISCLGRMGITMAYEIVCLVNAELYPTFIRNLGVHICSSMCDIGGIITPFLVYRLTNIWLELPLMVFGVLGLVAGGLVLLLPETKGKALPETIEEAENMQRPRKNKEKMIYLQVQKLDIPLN
Description: Substrates uptake assay, S2-OCT2 cells (14C-TEA). The conditions noted are these: 14C-TEA 5 µM, 5 min. It counts as in vitro ADME.

For data set [3] the following is noted: cited from earlier work.

The structures appear in SMILES notation. Bounds are passed on as bounds.

`CC(C)(O)[C@@H]1CC[C@@](C)([C@H]2CC[C@]3(C)[C@@H]2[C@H](O)C[C@@H]2[C@@]4(C)CC[C@H](O)C(C)(C)[C@@H]4CC[C@]23C)O1` [PDQ, (20S,24S)-dammar-20,24-epoxy-3β, 12β, 25-triol]: the IC50 was over 30 µM in data set [1] (MDCKII-OAT1, 14C-PAH 5 µM, 2 min) and over 30 µM in data set [2]. Also, the “DPM (14C-PAH uptake by OAT1)” value in data set [1] (inhibitor 0.1 μM) stood at 540.3±39.2 DPM; in data set [1] (inhibitor 0.3 μM), 566.0±44.8 DPM; in data set [1] (inhibitor 1 μM) it was 547.7±68.8 DPM; in data set [1] (inhibitor 3 μM), 496.3±38.1 DPM; in data set [1] (inhibitor 10 μM) it was 558.7±19.7 DPM; in data set [1] (inhibitor 30 μM), 460.3±5.7 DPM. Also, the bioavailability in data set [3] (PDQ in gattate pills) is reported as 62.13%. For the same compound, in data set [3] (rat plasma), the “biological half-time (t1/2)” value was 5.97 ± 0.43 h. In addition, in data set [3] (rat plasma), the “concentration at peak (Cmax)” value was 3265.12 ± 700.26 ng/mL. In addition, in data set [3] (rat plasma), the “time to peak (Tmax)” value was 4.0 ± 0.0 h. In addition, the Cmax in data set [3] (rats, effective oral dosage 15 mg/kg, no reference given, read-out: peak concentration (Cmax)) is 6.5 µM. In data set [3] (rats, over 96 h), the “cumulative amount excreted through feces” value was 55.39%. In addition, the “long-term accumulation in tissues” value in data set [3] (rats, single oral dose of 30.0 mg/kg) was “no long-term accumulation”.

The term IC50 denotes the concentration needed to halve the response being measured. Read a high IC50 as weaker potency in that assay. One may read the bioavailability as the share of a dose that reaches the circulation, judged against a reference dose that is usually intravenous.

The record behind these values is PMC11173382, “In Vitro Investigations into the Potential Drug Interactions of Pseudoginsenoside DQ Mediated by Cytochrome P450 and Human Drug Transporters” (Molecules, 2024).
